# From US9206396B2, “Methods and devices for quantitative viral assays” (Wisconsin Alumni Research Foundation, priority 2005, dated 2015)
# Entries after “also recorded” stand apart in the source; their conditions may differ. Where two headings read alike, the source gives them in different places.
# Columns and labels:
# Test in all cases: microbe, parasite or virus in culture
# Type in all cases: cell-based, recombinant VSV in BHK cells
# rVSV-GFP [1] = test system: rVSV-GFP
# rVSV-GFP [2] = test system: rVSV-GFP; remark: listed apart in the source
# rVSV-GFP [3] = test system: rVSV-GFP; remark: listed apart in the source
smiles,measurement,setting,value
O=c1[nH]cc(F)c(=O)[nH]1 [5-fluorouracil],Detection of comets at 16 μg/ml,rVSV-GFP [1],comets could no longer be detected
same,Inhibition of VSV comet formation,rVSV-GFP [1],Dose-dependent inhibition; also recorded: inhibited the formation of comets in a dose-dependent manner
same,IC50,"rVSV-GFP [1]; Vesicular stomatitis virus, read-out: 50 percent inhibition concentration (IC50), virus infectivity, comet assay",1 µg/mL
same,"Infection at drug concentration of 16 μg/ml, yield assay",rVSV-GFP [2],retained detectable infection
same,IC50,"rVSV-GFP [2]; Vesicular stomatitis virus, read-out: IC50, drug concentration required to reduce the virus yield by 50%",4 µg/mL
same,"Infection at drug concentration of 16 μg/ml, plaque assay",rVSV-GFP [3],retained detectable infection
same,IC50,"rVSV-GFP [3]; Vesicular stomatitis virus, read-out: IC50, drug concentration required to reduce the number of plaques by 50%",16 µg/mL
